{"source": "patent US20190256827A1", "about": "“EPIGENOME EDITING SYSTEMS AND METHODS” (STC.UNM, priority 2017, published 2019)", "assay_type_in_all_cases": "cell-based, human", "key": {"[1]": {"test_system": "GRM2 mRNA in HEK293T cells", "assay": "qPCR of GRM2 mRNA levels", "conditions": "GRM2 sgRNAs; ABA vs DMSO", "method": "To determine if the new method can be used to modify H3K27Ac at other gene loci, sgRNAs were designed that target the promoter region of other genes with low expression levels in HEK293T cells, including GRM2, HBA and MYOD1 (Table 1).\nHuman embryonic kidney cell HEK293T (American Type Culture Collection, Manassas, Va.) was cultured in Dulbecco's modified Eagle's medium (DMEM) (Gibco) with 10% FBS (Atlanta Biologicals), 1× GlutaMax (Gibco, Thermo Fisher Scientific, Inc., Waltham, Mass.), and 1× penicillin/streptomycin (Pen/Strep; Gibco, Thermo Fisher Scientific, Inc., Waltham, Mass.). Cells (100,000/ml) were plated in 24-well or 10-cm cell culture plate the day before transfection. […]\nTotal RNA was extracted using the EZNA Total RNA Kit I (Omega Bio-tek, Inc., Norcross, Ga.). qPCR reactions were performed on cDNA prepared from 1,000 ng of total cellular RNA using the High-Capacity cDNA Reverse Transcription Kit (Applied Biosystems Co., Thermo Fisher Scientific, Inc., Foster City, Calif.). […] Data were analyzed using the SDS software, version 2.4 (Applied Biosystems Co., Thermo Fisher Scientific, Inc., Foster City, Calif.), by the ΔΔCt method: the Ct values of target gene were normalized to Ct values of GAPDH, the folds of target gene expression changes were normalized to experimental controls. Analyzed data are reported as the mean±s.e.m. for biological replicates. […]"}, "[2]": {"test_system": "MYOD1 locus in HEK293T cells", "assay": "ChIP-qPCR of FLAG-ABI-P300 and H3K27Ac at the MYOD1 locus", "conditions": "MYOD1 sgRNAs; ABA treatment for 48 hours"}, "[3]": {"test_system": "six off-target genes (RHOC, IRF2BP2, TFAM, HSD3B7, METTL2A, CEP250) in HEK293T cells", "assay": "qPCR of mRNA levels of six off-target genes with IL1RN sgRNAs", "conditions": "100 μM ABA for 24 hours vs DMSO", "method": "FIG. 11. Expression of six off-target genes when induced by ABA using sgRNAs designed for IL1RN. dCas9-PYL-HA, FLAG-ABI-P300 and IL1RN sgRNAs were transfected into HEK293T cells for 24 hours. Cells were then treated with 100 μM of ABA for another 24 hours followed by the analysis of mRNA levels of six off-target genes using q-PCR. The fold changes were calculated by comparing ABA treated cells to cells treated with DMSO. Error bars represent ±s.e.m. from biological replicates (n=6).\nIt is known that sgRNA/Cas9 can bind to unintended loci, which can lead to off-target effects. To examine if aberrant binding interferes with the interpretation of results, all reported sites in the genome that could potentially be targeted by the IL1RN sgRNAs used in the studies were checked. Changes in the mRNA levels of six genes having TSS close to the off-target sites were monitored (Table 3) after cells were co-transfected with IL1RN sgRNAs, dCas9-PYL-HA and FLAG-ABI-P300 plasmids followed by ABA treatment for 24 hours.\nTotal RNA was extracted using the EZNA Total RNA Kit I (Omega Bio-tek, Inc., Norcross, Ga.). qPCR reactions were performed on cDNA prepared from 1,000 ng of total cellular RNA using the High-Capacity cDNA Reverse Transcription Kit (Applied Biosystems Co., Thermo Fisher Scientific, Inc., Foster City, Calif.). […] Analyzed data are reported as the mean±s.e.m. for biological replicates. […]"}}, "data": [{"smiles": "CC1=CC(=O)CC(C)(C)[C@@]1(O)/C=C/C(C)=C\\C(=O)O", "note": "[ABA, abscisic acid]", "values": [{"measurement": "level of GRM2 mRNA", "setting": "[1]", "result": "increases correspondingly"}, {"measurement": "enrichment of FLAG-ABI-P300 at the MYOD1 locus", "setting": "[2]", "result": "causes the enrichment"}, {"measurement": "enrichment of H3K27Ac at the MYOD1 locus", "setting": "[2]", "result": "causes the enrichment"}, {"measurement": "mRNA levels of six off-target genes", "setting": "[3]", "result": "None of the six genes display increases in mRNA levels"}]}]}
